Measured values as given in patent US7488740B2, “Substituted quinolin-4-ylamine analogues” (Neurogen Corporation, priority 2003, dated 2009).

Molecular target: T1, human capsaicin receptor (Homo sapiens, UniProt Q8NER1)
T1 construct: A cDNA encoding full length human capsaicin receptor recited in U.S. Pat. No. 6,482,611 was subcloned in the plasmid pBK-CMV; expressed in transfected cells
Experiment: Calcium mobilization assay (Example 6)
Format: cell-based
Settings: concentration required to provide a 50% decrease in the fluorescence response of cells exposed to one IC50 of capsaicin
Protocol: Human embryonic kidney (HEK293) cells were transfected with the pBK-CMV expression construct encoding the full length human capsaicin receptor using standard methods. The transfected cells were selected for two weeks in media containing G418 (400 μg/ml) to obtain a pool of stably transfected cells. Independent clones were isolated from this pool by limiting dilution to obtain clonal stable cell lines for use in subsequent experiments.
Cells transfected with expression plasmids (as described in Example 4) and thereby expressing human capsaicin receptor are seeded and grown to 70-90% confluency in FALCON black-walled, clear-bottomed 96-well plates (#3904, BECTON-DICKINSON, Franklin Lakes, N.J.). The culture medium is emptied from the 96 well plates and FLUO-3 AM calcium sensitive dye (Molecular Probes, Eugene, Oreg.) is added to each well (dye solution: 1 mg FLUO-3 AM, 440 μL DMSO and 440 μl 20% pluronic acid in DMSO, diluted 1:250 in Krebs-Ringer HEPES (KRH) buffer (25 mM HEPES, 5 mM KCl, 0.96 mM NaH2PO4, 1 mM MgSO4, 2 mM CaCl2, 5 mM glucose, 1 mM probenecid, pH 7.4), 50 μl diluted solution per well). Plates are covered with aluminum foil and incubated at 37° C. for 1-2 hours in an environment containing 5% CO2. After the incubation, the dye is emptied from the plates, and the cells are washed once with KRH buffer, and, resuspended in KRH buffer.
Agonist (e.g., olvanil, capsaicin, or RTX)-induced calcium mobilization is monitored using either FLUOROSKAN ASCENT (Labsystems, Franklin, Mass.) or FLIPR (fluorometric imaging plate reader system, Molecular Devices, Sunnyvale, Calif.) instruments. Varying concentrations of the antagonists ruthenium red or capsazepine (RBI; Natick, Mass.) are added to cells concurrently with agonist (e.g., 25-50 nM capsaicin). For agonist-induced calcium responses, data obtained between 30 and 60 seconds after agonist application are used to generate the IC50 values. KALEIDAGRAPH software (Synergy Software, Reading, Pa.) is used to fit the data to the equation: y=a*(1/(1+(b/x)^c)) to determine the IC50 for the response. In this equation, y is the maximum fluorescence signal, x is the concentration of the agonist or antagonist, a is the Emax, b corresponds to the IC50 value and c is the Hill coefficient.
To measure the ability of a test compound to antagonize (inhibit) the response of cells expressing capsaicin receptors to capsaicin or other vanilloid agonist, the IC50 of capsaicin is first determined. An additional 20 μl of KRH buffer and 1 μl DMSO is added to each well of cells, prepared as described above. 100 μl capsaicin in KRH buffer is automatically transferred by the FLIPR instrument to each well. An 8-point concentration response curve, with final capsaicin concentrations of 1 nM to 3 μM, is used to determine capsaicin IC50.
Test compounds are dissolved in DMSO, diluted in 20 μl KRH buffer so that the final concentration of test compounds in the assay well is between 1 μM and 5 μM, and added to cells prepared as described above. The 96 well plates containing prepared cells and test compounds are incubated in the dark, at room temperature for 0.5 to 6 hours. It is important that the incubation not continue beyond 6 hours. Just prior to determining the fluorescence response, 100 μl capsaicin in KRH buffer at twice the IC50 concentration determined from the concentration response curve is automatically added by the FLIPR instrument to each well of the 96 well plate for a final sample volume of 200 μl and a final capsaicin concentration equal to the IC50. The final concentration of test compounds in the assay wells is between 1 μM and 5 μM. […] Antagonists of the capsaicin receptor decrease this response by at least about 20%, preferably by at least about 50%, and most preferably by at least 80% as compared to matched control. The concentration of antagonist required to provide a 50% decrease is the IC50 for the antagonist, and is preferably below 1 micromolar, 100 nanomolar, 10 nanomolar or 1 nanomolar. […]

T1 sequence (Q8NER1 whole entry): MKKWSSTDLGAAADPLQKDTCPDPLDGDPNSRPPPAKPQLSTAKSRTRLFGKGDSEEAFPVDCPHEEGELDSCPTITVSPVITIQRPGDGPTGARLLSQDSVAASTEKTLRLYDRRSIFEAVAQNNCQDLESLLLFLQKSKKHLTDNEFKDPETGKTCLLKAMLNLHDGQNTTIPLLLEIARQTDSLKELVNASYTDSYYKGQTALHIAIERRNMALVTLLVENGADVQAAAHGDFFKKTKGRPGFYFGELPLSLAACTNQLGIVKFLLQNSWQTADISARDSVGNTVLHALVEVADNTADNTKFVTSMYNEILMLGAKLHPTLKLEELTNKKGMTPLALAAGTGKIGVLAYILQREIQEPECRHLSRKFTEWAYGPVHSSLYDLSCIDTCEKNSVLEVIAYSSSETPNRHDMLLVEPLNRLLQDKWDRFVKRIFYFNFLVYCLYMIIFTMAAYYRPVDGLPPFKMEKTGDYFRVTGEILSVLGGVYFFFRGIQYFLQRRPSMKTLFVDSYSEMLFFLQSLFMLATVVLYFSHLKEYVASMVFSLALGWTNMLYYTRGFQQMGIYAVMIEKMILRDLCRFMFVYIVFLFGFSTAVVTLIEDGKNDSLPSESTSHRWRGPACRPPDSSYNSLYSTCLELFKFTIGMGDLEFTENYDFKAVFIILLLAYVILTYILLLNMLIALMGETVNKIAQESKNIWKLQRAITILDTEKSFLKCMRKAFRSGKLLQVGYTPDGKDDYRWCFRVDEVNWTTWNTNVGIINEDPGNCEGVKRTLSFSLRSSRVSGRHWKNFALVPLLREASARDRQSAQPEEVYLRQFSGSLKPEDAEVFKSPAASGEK

SMILES | IC50
CC(C)COCc1cc(Nc2ccc(Br)cn2)c2ccc(-c3ncccc3C(F)(F)F)nc2n1 [Compound 61, N-(5-bromopyridin-2-yl)-2-(isobutoxymethyl)-7-[3-(trifluoromethyl)pyridin-2-yl]-1,8-naphthyridin-4-amine] | ≤ 1000 nM
CC(=O)c1cc(Nc2ccc(C(F)(F)F)cn2)c2ccc(-c3ncccc3C(F)(F)F)nc2n1 [Compound 133, 1-(7-[3-(trifluoromethyl)pyridin-2-yl]-4-{[5-(trifluoromethyl)pyridin-2-yl]amino}-1,8-naphthyridin-2-yl)ethanone] | ≤ 1000 nM
COCc1nc2nc(-c3ncccc3C(F)(F)F)ccc2c(Nc2ccc(C(F)(F)F)cc2)c1C(=O)O [Compound 6, 2-(methoxymethyl)-4-{[4-(trifluoromethyl)phenyl]amino}-7-[3-(trifluoromethyl)pyridin-2-yl]-1,8-naphthyridine-3-carboxylic acid] | ≤ 1000 nM
CC(C)CN(Cc1cc(Nc2ccc(C(F)(F)F)cc2)c2ccc(-c3ncccc3C(F)(F)F)nc2n1)S(C)(=O)=O [Compound 80, N-isobutyl-N-({4-{[4-(trifluoromethyl)phenyl]amino}-7-[3-(trifluoromethyl)pyridin-2-yl]-1,8-naphthyridin-2-yl}methyl)methanesulfonamide] | ≤ 1000 nM
CC(=O)COCc1cc(Nc2ccc(C(F)(F)F)cc2)c2ccc(-c3ncccc3C(F)(F)F)nc2n1 [Compound 67, 1-({4-{[4-(trifluoromethyl)phenyl]amino}-7-[3-(trifluoromethyl)pyridin-2-yl]-1,8-naphthyridin-2-yl}methoxy)acetone] | ≤ 1000 nM
CC(C)OCc1cc(Nc2ccc(C(F)(F)F)cc2)c2ccc(-c3ncccc3C(F)(F)F)nc2n1 [Compound 41, 2-(isopropoxymethyl)-N-[4-(trifluoromethyl)phenyl]-7-[3-(trifluoromethyl)pyridin-2-yl]-1,8-naphthyridin-4-amine] | ≤ 1000 nM
COCc1cc(Nc2ccc(C(F)(F)F)cn2)c2ccc(-c3ncccc3C(F)(F)F)nc2n1 [Compound 14, 2-(methoxymethyl)-7-[3-(trifluoromethyl)pyridin-2-yl]-N-[5-(trifluoromethyl)pyridin-2-yl]-1,8-naphthyridin-4-amine] | ≤ 1000 nM
FC(F)(F)c1cccnc1-c1ccc2c(Nc3ccc(Cl)cn3)ccnc2n1 [Compound 139, N-(5-chloropyridin-2-yl)-7-[3-(trifluoromethyl)pyridin-2-yl]-1,8-naphthyridin-4-amine] | ≤ 1000 nM
CCCc1cc(Nc2ccc(CC)cn2)c2ccc(-c3ncccc3C(F)(F)F)nc2n1 [Compound 128, N-(5-ethylpyridin-2-yl)-2-propyl-7-[3-(trifluoromethyl)pyridin-2-yl]-1,8-naphthyridin-4-amine] | ≤ 1000 nM
COCCN(CCOC)Cc1cc(Nc2ccc(C(F)(F)F)cc2)c2ccc(-c3ncccc3C(F)(F)F)nc2n1 [Compound 50, 2-{[bis(2-methoxyethyl)amino]methyl}-N-[4-(trifluoromethyl)phenyl]-7-[3-(trifluoromethyl)pyridin-2-yl]-1,8-naphthyridin-4-amine] | ≤ 1000 nM
CC(C)c1cc(Nc2ccc(C#N)cn2)c2ccc(-c3ncccc3C(F)(F)F)nc2n1 [Compound 104, 6-({2-isopropyl-7-[3-(trifluoromethyl)pyridin-2-yl]-1,8-naphthyridin-4-yl}amino)nicotinonitrile] | ≤ 1000 nM
CN(C)Cc1cc(Nc2ccc(C(F)(F)F)cn2)c2ccc(-c3ncccc3C(F)(F)F)nc2n1 [Compound 89, 2-[(dimethylamino)methyl]-7-[3-(trifluoromethyl)pyridin-2-yl]-N-[5-(trifluoromethyl)pyridin-2-yl]-1,8-naphthyridin-4-amine] | ≤ 1000 nM
Cc1cc(Nc2ccc(C(F)(F)F)cn2)c2ccc(-c3ncccc3C(F)(F)F)nc2n1 [Compound 39, 2-methyl-7-[3-(trifluoromethyl)pyridin-2-yl]-N-[5-(trifluoromethyl)pyridin-2-yl]-1,8-naphthyridin-4-amine] | ≤ 1000 nM
Oc1cc(Nc2ccc(C(F)(F)F)cn2)c2ccc(-c3ncccc3C(F)(F)F)nc2n1 [Compound 97, 7-[3-(trifluoromethyl)pyridin-2-yl]-4-{[5-(trifluoromethyl)pyridin-2-yl]amino}-1,8-naphthyridin-2-ol] | ≤ 1000 nM
COCc1cc(Nc2ccc(F)cc2)c2ccc(-c3ncccc3C(F)(F)F)nc2n1 [Compound 9, N-(4-fluorophenyl)-2-(methoxymethyl)-7-[3-(trifluoromethyl)pyridin-2-yl]-1,8-naphthyridin-4-amine] | ≤ 1000 nM
FC(F)(F)c1ccc(Nc2ccnc3cc(-c4ncccc4C(F)(F)F)cnc23)nc1 [Compound 108, 7-[3-(trifluoromethyl)pyridin-2-yl]-N-[5-(trifluoromethyl)pyridin-2-yl]-1,5-naphthyridin-4-amine] | ≤ 1000 nM
Oc1cc(Nc2ccc(C(F)(F)F)cc2)c2ccc(-c3ncccc3C(F)(F)F)nc2n1 [Compound 31, 4-{[4-(trifluoromethyl)phenyl]amino}-7-[3-(trifluoromethyl)pyridin-2-yl]-1,8-naphthyridin-2-ol] | ≤ 1000 nM
CC(C)CNc1cc(Nc2ccc(C(F)(F)F)cn2)c2ccc(-c3ncccc3C(F)(F)F)nc2n1 [Compound 130, N~2~-isobutyl-7-[3-(trifluoromethyl)pyridin-2-yl]-N~4~-[5-(trifluoromethyl)pyridin-2-yl]-1,8-naphthyridine-2,4-diamine] | ≤ 1000 nM
CC(C)(O)COCc1cc(Nc2ccc(C(F)(F)F)cc2)c2ccc(-c3ncccc3C(F)(F)F)nc2n1 [Compound 82, 2-methyl-1-({4-{[4-(trifluoromethyl)phenyl]amino}-7-[3-(trifluoromethyl)pyridin-2-yl]-1,8-naphthyridin-2-yl}methoxy)propan-2-ol] | ≤ 1000 nM
CCCc1cc(Nc2ccc(Cl)cn2)c2ccc(-c3ncccc3C(F)(F)F)nc2n1 [Compound 122, N-(5-chloropyridin-2-yl)-2-propyl-7-[3-(trifluoromethyl)pyridin-2-yl]-1,8-naphthyridin-4-amine] | ≤ 1000 nM
COCc1cc(Nc2ccc3c(c2)NCCC3(C)C)c2ccc(-c3ncccc3C(F)(F)F)nc2n1 [Compound 16, N-(4,4-dimethyl-1,2,3,4-tetrahydroquinolin-7-yl)-2-(methoxymethyl)-7-[3-(trifluoromethyl)pyridin-2-yl]-1,8-naphthyridin-4-amine] | ≤ 1000 nM
O=C1OCc2nc3nc(-c4ncccc4C(F)(F)F)ccc3c(Nc3ccc(C(F)(F)F)cc3)c21 [Compound 12, 5-{[4-(trifluoromethyl)phenyl]amino}-2-[3-(trifluoromethyl)pyridin-2-yl]furo[3,4-b]-1,8-naphthyridin-6(8H)-one] | ≤ 1000 nM
FC(F)(F)c1ccc(Nc2cc(Cl)nc3cc(-c4ncccc4C(F)(F)F)ccc23)cc1 [Compound 20, 2-chloro-N-[4-(trifluoromethyl)phenyl]-7-[3-(trifluoromethyl)pyridin-2-yl]quinolin-4-amine] | ≤ 1000 nM
CC(C)(C)c1ccc(Nc2cc(O)nc3cc(-c4ncccc4C(F)(F)F)ccc23)cc1 [Compound 21, 4-[(4-tert-butylphenyl)amino]-7-[3-(trifluoromethyl)pyridin-2-yl]quinolin-2-ol] | ≤ 1000 nM
